Measurements: patent EP3263567A1, “CARBOXAMIDE-SUBSTITUTED PYRAZOLES AND TRI(HETERO)ARYL-PYRAZOLES FOR USE IN METHODS OF TREATING AND / OR PREVENTING CARDIOVASCULAR DISEASES AND / OR COMORBIDITIES THEREOF” (AiCuris Anti-infective Cures GmbH, priority 2016, dated 2018)

Key:
HCN4 = target: T1, HCN4 (Homo sapiens, UniProt Q9Y3Q4); experiment: Whole-cell patch-clamp, HCN4 currents in stably transfected CHO cells; type: cell-based; design: expressed in transfected cells; host or cells: CHO (ATCC CCL-61), stably transfected; selection with Hygromycin and Geneticin
T1 sequence (Q9Y3Q4 1-1203): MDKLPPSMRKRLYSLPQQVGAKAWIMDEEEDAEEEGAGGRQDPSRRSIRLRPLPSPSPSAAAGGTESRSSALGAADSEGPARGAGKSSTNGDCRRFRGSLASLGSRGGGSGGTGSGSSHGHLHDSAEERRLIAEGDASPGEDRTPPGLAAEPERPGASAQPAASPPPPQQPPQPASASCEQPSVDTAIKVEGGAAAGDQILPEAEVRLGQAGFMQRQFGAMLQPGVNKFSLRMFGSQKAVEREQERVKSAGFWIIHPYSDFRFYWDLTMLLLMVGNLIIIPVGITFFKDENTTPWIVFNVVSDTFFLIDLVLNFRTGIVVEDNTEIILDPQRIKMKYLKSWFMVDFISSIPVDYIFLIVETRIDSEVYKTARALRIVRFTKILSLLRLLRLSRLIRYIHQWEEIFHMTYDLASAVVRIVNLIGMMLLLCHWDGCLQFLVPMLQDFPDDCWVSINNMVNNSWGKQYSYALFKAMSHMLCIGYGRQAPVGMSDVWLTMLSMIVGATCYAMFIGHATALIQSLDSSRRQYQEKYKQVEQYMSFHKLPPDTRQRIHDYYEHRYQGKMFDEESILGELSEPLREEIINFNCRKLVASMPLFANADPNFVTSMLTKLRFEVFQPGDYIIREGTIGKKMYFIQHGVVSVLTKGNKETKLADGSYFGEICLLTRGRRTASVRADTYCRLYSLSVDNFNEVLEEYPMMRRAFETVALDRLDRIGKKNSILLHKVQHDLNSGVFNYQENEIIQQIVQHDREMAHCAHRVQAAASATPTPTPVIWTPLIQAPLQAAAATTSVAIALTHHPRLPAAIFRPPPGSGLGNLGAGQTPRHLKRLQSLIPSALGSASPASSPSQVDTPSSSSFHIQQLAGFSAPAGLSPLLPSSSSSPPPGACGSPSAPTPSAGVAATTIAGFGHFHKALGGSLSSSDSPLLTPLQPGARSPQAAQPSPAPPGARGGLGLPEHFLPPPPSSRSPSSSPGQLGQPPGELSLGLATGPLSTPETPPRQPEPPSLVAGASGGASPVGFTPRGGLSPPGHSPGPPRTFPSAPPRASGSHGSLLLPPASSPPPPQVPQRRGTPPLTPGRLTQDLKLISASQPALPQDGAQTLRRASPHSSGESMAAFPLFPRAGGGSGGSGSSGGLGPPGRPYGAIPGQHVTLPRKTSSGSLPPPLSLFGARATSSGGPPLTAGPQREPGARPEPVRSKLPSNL
Experimental: (§1) [drawing 92] i.e. 4-[5-[3-Chloro-5-(trifluoromethoxy) phenyl]-1-(pyridin-3-yl)-1H-pyrazol-3-yl]-5,6-dihydro-7H-pyrrolo[3,4-d]pyrimidin-7-one, was tested for its effects on human Nav1.5, Cav1.2, Kv1.5, and HCN4 currents recorded from stably transfected CHO cells. The effect of four concentrations of this compound on these currents was investigated.
(§2) The whole-cell patch-clamp technique was used to investigate the effect of Compound A on the currents of Nav1.5, Kv1.5, Cav1.2 and HCN4 channels, expressed in CHO cells (ATCC, CCL-61). Compound A was tested at concentrations of 200 nM, 600 nM, 2000 nM and 6000 nM. For all ion channels 0.1% DMSO was used as vehicle and ZD7288 as suitable blockers were applied to assure accuracy of the method. The selection antibiotics can be dervied from the Table below:
(§3) Concentrations of 200 nM, 600 nM, 2000 nM and 6000 nM of Compound A were tested. […]
(§4) The 35 mm culture dishes upon which cells were seeded at a density allowing single cells to be recorded were placed on the dish holder of the microscope and continuously perfused (at approximately 1 mL/min) with the bath solution described in section 4.7. […]
(§5) As soon as a stable seal could be established outward tail currents were measured upon pulses described in the Table below: […]
(§6) Values in Ampere (A) of the peak amplitudes of outward tail currents were generated for each voltage step. […] The recorded current amplitudes at the steady state level of current inhibition were compared to those from control conditions measured in the pre-treatment phase of the same cell. The amount of current block was calculated as percentage of control. To determine whether the observed current inhibition was due to Compound A-interaction with the respective ion channel or due to current rundown, these residual currents were compared to those measured in vehicle treated cells. Data from at least two individual experiments were collected and the corresponding mean values and standard deviations were calculated. […]

Nav1.5 = target: T2, Nav1.5 (Homo sapiens, UniProt Q14524); experiment: Whole-cell patch-clamp, Nav1.5 currents in stably transfected CHO cells; type: cell-based
T2 construct: expressed in transfected cells; host or cells: CHO (ATCC CCL-61), stably transfected; selection with Geneticin and Puromycin
T2 sequence (Q14524 whole entry): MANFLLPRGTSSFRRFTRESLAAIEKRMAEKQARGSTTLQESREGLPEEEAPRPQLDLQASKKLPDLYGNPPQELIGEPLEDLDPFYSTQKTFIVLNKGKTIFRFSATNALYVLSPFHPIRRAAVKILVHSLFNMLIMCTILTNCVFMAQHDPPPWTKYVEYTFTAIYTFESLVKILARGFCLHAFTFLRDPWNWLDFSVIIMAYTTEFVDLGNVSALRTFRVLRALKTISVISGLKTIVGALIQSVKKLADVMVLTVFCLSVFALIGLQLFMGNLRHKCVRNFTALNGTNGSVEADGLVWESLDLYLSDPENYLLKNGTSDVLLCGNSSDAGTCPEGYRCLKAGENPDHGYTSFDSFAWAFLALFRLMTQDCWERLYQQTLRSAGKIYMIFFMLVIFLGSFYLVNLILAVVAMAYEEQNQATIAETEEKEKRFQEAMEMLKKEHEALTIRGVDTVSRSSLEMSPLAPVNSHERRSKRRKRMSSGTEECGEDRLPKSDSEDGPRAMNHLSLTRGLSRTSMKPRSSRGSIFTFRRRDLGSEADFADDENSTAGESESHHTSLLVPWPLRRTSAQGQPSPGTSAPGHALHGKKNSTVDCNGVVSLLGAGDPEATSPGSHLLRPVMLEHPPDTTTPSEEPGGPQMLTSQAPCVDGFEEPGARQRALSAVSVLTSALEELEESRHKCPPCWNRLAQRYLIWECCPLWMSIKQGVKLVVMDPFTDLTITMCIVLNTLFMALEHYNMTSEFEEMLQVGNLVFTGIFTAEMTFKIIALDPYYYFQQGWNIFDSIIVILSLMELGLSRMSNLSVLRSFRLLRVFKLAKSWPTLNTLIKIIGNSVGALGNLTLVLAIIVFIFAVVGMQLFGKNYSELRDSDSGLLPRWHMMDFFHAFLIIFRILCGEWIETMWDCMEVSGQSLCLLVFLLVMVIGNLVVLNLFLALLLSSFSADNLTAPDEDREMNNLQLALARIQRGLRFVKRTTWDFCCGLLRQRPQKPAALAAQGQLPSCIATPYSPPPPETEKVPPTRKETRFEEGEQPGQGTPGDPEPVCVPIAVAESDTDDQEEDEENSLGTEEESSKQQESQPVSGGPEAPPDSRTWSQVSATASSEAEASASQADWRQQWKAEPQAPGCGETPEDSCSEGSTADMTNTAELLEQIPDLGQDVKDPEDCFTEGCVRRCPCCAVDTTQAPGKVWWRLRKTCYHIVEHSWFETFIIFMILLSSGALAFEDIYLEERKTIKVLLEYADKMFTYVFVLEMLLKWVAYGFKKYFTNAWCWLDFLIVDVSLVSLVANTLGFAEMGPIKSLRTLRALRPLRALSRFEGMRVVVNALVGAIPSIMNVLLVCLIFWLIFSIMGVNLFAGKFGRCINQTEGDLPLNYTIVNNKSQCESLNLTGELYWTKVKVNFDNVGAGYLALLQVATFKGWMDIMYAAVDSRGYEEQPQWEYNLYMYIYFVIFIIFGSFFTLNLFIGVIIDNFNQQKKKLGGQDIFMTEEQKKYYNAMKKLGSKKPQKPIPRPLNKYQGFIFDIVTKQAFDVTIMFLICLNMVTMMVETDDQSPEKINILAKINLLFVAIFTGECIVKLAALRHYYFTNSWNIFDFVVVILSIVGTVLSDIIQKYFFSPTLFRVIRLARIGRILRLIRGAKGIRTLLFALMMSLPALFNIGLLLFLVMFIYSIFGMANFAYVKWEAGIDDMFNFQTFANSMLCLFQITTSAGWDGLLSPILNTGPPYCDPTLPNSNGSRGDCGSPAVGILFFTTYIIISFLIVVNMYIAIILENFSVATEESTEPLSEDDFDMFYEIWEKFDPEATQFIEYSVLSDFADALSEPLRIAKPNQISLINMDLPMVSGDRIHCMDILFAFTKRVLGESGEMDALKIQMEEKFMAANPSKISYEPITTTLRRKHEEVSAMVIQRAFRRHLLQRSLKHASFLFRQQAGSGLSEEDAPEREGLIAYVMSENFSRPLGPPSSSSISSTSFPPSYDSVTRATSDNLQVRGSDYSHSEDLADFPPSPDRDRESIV
Experimental: as §1, §2, §3, §4, §5, §6

[1] = Stability of compound A in solution; type: physicochemical
Experimental: The compound stock solutions were stored at 19°C to 30°C (room temperature). Test solutions were prepared freshly every day. Test solutions were prepared shortly before experimentation.
The Compound A stock solutions were prepared freshly every day of experimentation. Application of Compound A to the CHO cells was completed within one day. During this period, there was no observation indicating any instability of Compound A solved in vehicle. The effects observed on Nav1.5, Kv1.5, Cav1.2 and HCN4 channels of the Compound A dose formulations analyzed remained stable over several hours at room temperature.

Question: For `O=C1NCc2c1ncnc2-c1cc(-c2cc(Cl)cc(OC(F)(F)F)c2)n(-c2cccnc2)n1` [Compound A, 4-[5-[3-Chloro-5-(trifluoromethoxy)phenyl]-1-(pyridin-3-yl)-1H-pyrazol-3-yl]-5,6-dihydro-7H-pyrrolo[3,4-d]pyrimidin-7-one], which “reduction of the current amplitude (HCN4)” value (HCN4; at ≤ 6 µM) is on record?
Answer: Its value is “more than 30%”.

Question: And the “Hill coefficient (HCN4)” value (HCN4; stably transfected CHO cells)?
Answer: Its value is 1.15.

Question: And the IC50 (HCN4; stably transfected CHO cells, 200, 600, 2000, 6000 nM tested)?
Answer: Its IC50 is 879 nM.

Question: What about the “reduction of the current amplitude (Nav1.5, fast inactivated state)” value (Nav1.5; at ≤ 6 µM) of the same compound?
Answer: The value was “more than 30%”.

Question: What about the IC50 (Nav1.5; highest concentration tested 6,000 nM, read-out: IC50 (Nav1.5, fast inactivated state)) of the same compound?
Answer: The IC50 was over 6000 nM.

Question: What about the “interaction with ion channels of Nav” value (Nav1.5; summary statement) of the same compound?
Answer: The value was “do not interact with other ion channels of Nav, Kav, and Cav substantially”.

Question: And the “stability in aqueous and physiological fluids and organic solvents” value [1]?
Answer: Its value is “stable”.

Question: What about the “stability of dose formulations in bath solution” value ([1]; several hours at room temperature) of the same compound?
Answer: The value was “no observations indicating any instability”.
